Laboratory results taken from patent US20180319810A1, “SUBSTITUTED BRIDGED UREA ANALOGS AS SIRTUIN MODULATORS” (GlaxoSmithKline Intellectual Property (No.2) Limited, priority 2014, published 2018).

What follows are molecules tested against T1, SIRT1 (Homo sapiens, UniProt Q96EB6) (assay: Trp mass spectrometry assay of SIRT1 activation). Details: Trp peptide Ac-R-H-K-K(Ac)-W-NH2 0.5 μM, 120 μM βNAD+, 10 nM SIRT1, 25 min, 25° C.
T1 sequence (Q96EB6 1-747): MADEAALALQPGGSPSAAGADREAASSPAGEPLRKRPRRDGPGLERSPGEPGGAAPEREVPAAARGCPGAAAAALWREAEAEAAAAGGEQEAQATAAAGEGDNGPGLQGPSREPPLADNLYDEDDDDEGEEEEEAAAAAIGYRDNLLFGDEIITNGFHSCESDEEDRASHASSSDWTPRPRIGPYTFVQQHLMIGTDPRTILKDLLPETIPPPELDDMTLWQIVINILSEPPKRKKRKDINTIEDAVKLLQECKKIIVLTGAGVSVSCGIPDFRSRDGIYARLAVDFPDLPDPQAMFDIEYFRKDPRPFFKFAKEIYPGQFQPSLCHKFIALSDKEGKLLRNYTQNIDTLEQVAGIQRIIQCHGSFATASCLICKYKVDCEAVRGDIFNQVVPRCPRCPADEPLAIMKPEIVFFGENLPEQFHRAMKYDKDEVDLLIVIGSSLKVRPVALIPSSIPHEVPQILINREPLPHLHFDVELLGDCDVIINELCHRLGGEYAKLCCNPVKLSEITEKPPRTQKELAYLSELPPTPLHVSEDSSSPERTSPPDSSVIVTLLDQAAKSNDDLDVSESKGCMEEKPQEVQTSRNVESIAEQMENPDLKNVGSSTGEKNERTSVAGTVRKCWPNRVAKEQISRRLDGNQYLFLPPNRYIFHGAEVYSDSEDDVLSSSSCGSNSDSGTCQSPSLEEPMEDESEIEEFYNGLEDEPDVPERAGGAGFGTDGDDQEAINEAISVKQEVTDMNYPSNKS
Format: biochemical
Description: Mass spectrometry based assays were used to identify modulators of SIRT1 activity. […] The peptide was labeled with the fluorophore 5TMR (excitation 540 nm/emission 580 nm) at the C-terminus. The sequence of the peptide substrate was based on p53 with several modifications. In addition, the methionine residue naturally present in the sequence was replaced with the norleucine because the methionine may be susceptible to oxidation during synthesis and purification.
The Trp mass spectrometry assay was conducted as follows. […] The SIRT1 protein was obtained by cloning the SirT1 gene into a T7-promoter containing vector, which was then expressed in BL21(DE3) bacterial cells and purified as described in further detail below. Test compound was added at varying concentrations to this reaction mixture and the resulting reactions were monitored. After the 25 minute incubation with SIRT1, 10 μL of 10% formic acid was added to stop the reaction. The resulting reactions were sealed and frozen for later mass spec analysis. The relative SIRT1 activity was then determined by measuring the amount of O-acetyl-ADP-ribose (OAADPR) formed (or, alternatively, the amount of deacetylated Trp peptide generated) by the NAD-dependent sirtuin deacetylation reaction in the presence of varying concentrations of the test compound versus control reactions lacking the test compound.
The degree to which the test agent activated deacetylation by SIRT1 was expressed as EC1.5 (i.e., the concentration of compound required to increase SIRT1 activity by 50% over the control lacking test compound), and Percent Maximum Activation (i.e., the maximum activity relative to control (100%) obtained for the test compound).
This time point was the same as that used for test compounds and, within the linear range, the endpoint represents a change in velocity.
For the above assay, SIRT1 protein was expressed and purified as follows. The SirT1 gene was cloned into a T7-promoter containing vector and transformed into BL21(DE3). The protein was expressed by induction with 1 mM IPTG as an N-terminal His-tag fusion protein at 18° C. overnight and harvested at 30,000×g. Cells were lysed with lysozyme in lysis buffer (50 mM Tris-HCl, 2 mM Tris[2-carboxyethyl]phosphine (TCEP), 10 μM ZnCl2, 200 mM NaCl) and further treated with sonication for 10 min for complete lysis. The protein was purified over a Ni-NTA column (Amersham) and fractions containing pure protein were pooled, concentrated and run over a sizing column (Sephadex S200 26/60 global). The peak containing soluble protein was collected and run on an Ion-exchange column (MonoQ). Gradient elution (200 mM-500 mM NaCl) yielded pure protein. This protein was concentrated and dialyzed against dialysis buffer (20 mM Tris-HCl, 2 mM TCEP) overnight. The protein was aliquoted and frozen at −80° C. until further use.
“NT” means not tested; “ND” means not determinable.

Row | Structure (SMILES) | TRP Activity (EC1.5, concentration of compound required to increase SIRT1 activity by 50% over control) | TRP MAX RESP (percent maximum fold activation relative to control)
1 | Cc1ccc2c(NC(=O)N3c4nc(C(=O)NC(CO)C(F)(F)F)ncc4N4CCC[C@H]3C4)n[nH]c2n1 (single isomer, unassigned) [Example 66] | A (EC1.5<1 μM) | A (Fold activation ≥150%)
2 | Cc1ccc2c(NC(=O)N3c4nc(C(=O)NC(CO)C(F)(F)F)ncc4N4CCC[C@H]3C4)n[nH]c2n1 (single isomer, unassigned) [Example 68] | B (EC1.5 1-25 μM) | A (Fold activation ≥150%)
3 | Cc1nc(C(=O)N[C@H](C)C(F)(F)F)nc2c1N1CC[C@@H](C1)N2C(=O)Nc1cc(OC[C@H](O)CO)ccn1 [Example 1, (8S)—N9-(4-((R)-2,3-dihydroxypropoxy)pyridin-2-yl)-4-methyl-N2-((R)-1,1,1-trifluoropropan-2-yl)-7,8-dihydro-5,8-methanopyrimido[4,5-b][1,4]diazepine-2,9(6H)-dicarboxamide] | A (EC1.5<1 μM) | A (Fold activation ≥150%)
4 | Cn1cccc(NC(=O)N2c3nc(C(=O)NCC(F)(F)F)ncc3N3CC[C@H]2C3)c1=O [Example 2, (8S)—N9-(1-methyl-2-oxo-1,2-dihydropyridin-3-yl)-N2-(2,2,2-trifluoroethyl)-7,8-dihydro-5,8-methanopyrimido[4,5-b][1,4]diazepine-2,9(6H)-dicarboxamide] | B (EC1.5 1-25 μM) | A (Fold activation ≥150%)
5 | O=C(Nc1ccccn1)N1c2nc(-c3cccc(C(F)(F)F)c3)ncc2N2CC[C@H]1C2 [Example 3, (8S)—N-(pyridin-2-yl)-2-(3-(trifluoromethyl)phenyl)-7,8-dihydro-5,8-methano pyrimido[4,5-b][1,4]diazepine-9(6H)-carboxamide] |  | A (Fold activation ≥150%)
6 | Cc1ccc(-c2ncc3c(n2)N(C(=O)Nc2ccccn2)[C@H]2CCN3C2)cn1 [Example 4, (8S)-2-(6-methylpyridin-3-yl)-N-(pyridin-2-yl)-7,8-dihydro-5,8-methanopyrimido[4,5-b][1,4]diazepine-9(6H)-carboxamide] | B (EC1.5 1-25 μM) | 
7 | Cc1ccc(-c2ncc3c(n2)N(C(=O)Nc2cccnc2)[C@H]2CCN3C2)cn1 [Example 5, (8S)-2-(6-methylpyridin-3-yl)-N-(pyridin-3-yl)-7,8-dihydro-5,8-methanopyrimido[4,5-b][1,4]diazepine-9(6H)-carboxamide] | B (EC1.5 1-25 μM) | A (Fold activation ≥150%)
8 | Cc1cc(-c2ncc3c(n2)N(C(=O)Nc2cccnc2)[C@H]2CCN3C2)ccn1 [Example 6, (8S)-2-(2-methylpyridin-4-yl)-N-(pyridin-3-yl)-7,8-dihydro-5,8-methano pyrimido[4,5-b][1,4]diazepine-9(6H)-carboxamide] | B (EC1.5 1-25 μM) | A (Fold activation ≥150%)
9 | Cc1ccc(-c2nc(C)c3c(n2)N(C(=O)Nc2cccnc2)[C@H]2CCN3C2)cn1 [Example 7, (8S)-4-methyl-2-(6-methylpyridin-3-yl)-N-(pyridin-3-yl)-7,8-dihydro-5,8-methanopyrimido[4,5-b][1,4]diazepine-9(6H)-carboxamide] | B (EC1.5 1-25 μM) | A (Fold activation ≥150%)
10 | Cc1cc(-c2ncc3c(n2)N(C(=O)Nc2ccccn2)[C@H]2CCN3C2)ccn1 [Example 8, (8S)-2-(2-methylpyridin-4-yl)-N-(pyridin-2-yl)-7,8-dihydro-5,8-methanopyrimido[4,5-b][1,4]diazepine-9(6H)-carboxamide] | B (EC1.5 1-25 μM) | 
11 | CN(C)c1ccc(-c2ncc3c(n2)N(C(=O)Nc2ccccn2)[C@H]2CCN3C2)cn1 [Example 9, (8S)-2-(6-(dimethylamino)pyridin-3-yl)-N-(pyridin-2-yl)-7,8-dihydro-5,8-methanopyrimido[4,5-b][1,4]diazepine-9(6H)-carboxamide] | B (EC1.5 1-25 μM) | 
12 | Cc1cc(-c2nc(C)c3c(n2)N(C(=O)Nc2ccccn2)[C@H]2CCN3C2)ccn1 [Example 10, (8S)-4-methyl-2-(2-methylpyridin-4-yl)-N-(pyridin-2-yl)-7,8-dihydro-5,8-methanopyrimido[4,5-b][1,4]diazepine-9(6H)-carboxamide] | B (EC1.5 1-25 μM) | A (Fold activation ≥150%)
13 | CN(C)c1cc(-c2ncc3c(n2)N(C(=O)Nc2ccccn2)[C@H]2CCN3C2)ccn1 [Example 11, (8S)-2-(2-(dimethylamino)pyridin-4-yl)-N-(pyridin-2-yl)-7,8-dihydro-5,8-methano pyrimido[4,5-b][1,4]diazepine-9(6H)-carboxamide] | B (EC1.5 1-25 μM) | 
14 | Cc1ccc(-c2nc(C)c3c(n2)N(C(=O)Nc2ccccn2)[C@H]2CCN3C2)cn1 [Example 12, (8S)-4-methyl-2-(6-methylpyridin-3-yl)-N-(pyridin-2-yl)-7,8-dihydro-5,8-methanopyrimido[4,5-b][1,4]diazepine-9(6H)-carboxamide] | B (EC1.5 1-25 μM) | A (Fold activation ≥150%)
15 | O=C(Nc1ccnc(O[C@@H]2CCOC2)n1)N1c2nc(-c3cccc(C(F)(F)F)c3)ncc2N2CC[C@H]1C2 [Example 14, (8S)—N-(2-(((R)-tetrahydrofuran-3-yl)oxy)pyrimidin-4-yl)-2-(3-(trifluoromethyl)phenyl)-7,8-dihydro-5,8-methanopyrimido[4,5-b][1,4]diazepine-9(6H)-carboxamide] | B (EC1.5 1-25 μM) | A (Fold activation ≥150%)
16 | O=C(NC1CC1)N1c2nc(-c3cccc(C(F)(F)F)c3)ncc2N2CC[C@H]1C2 [Example 15, (8S)—N-cyclopropyl-2-(3-(trifluoromethyl)phenyl)-7,8-dihydro-5,8-methanopyrimido[4,5-b][1,4]diazepine-9(6H)-carboxamide] | A (EC1.5<1 μM) | A (Fold activation ≥150%)
17 | O=C(Nc1cc(OC[C@H](O)CO)ncn1)N1c2nc(-c3cccc(C(F)(F)F)c3)ncc2N2CC[C@H]1C2 [Example 16, (8S)—N-(6-((R)-2,3-dihydroxypropoxy)pyrimidin-4-yl)-2-(3-(trifluoromethyl)phenyl)-7,8-dihydro-5,8-methanopyrimido[4,5-b][1,4]diazepine-9(6H)-carboxamide] | B (EC1.5 1-25 μM) | A (Fold activation ≥150%)
